Assays:
Experiment in all cases: SRB assay, IMT combined with inhibitor
Type in all cases: cell-based
A375 = A375 (skin); concentration series of the labelled inhibitor + fixed concentration of IMT (3S)-1-[(2R)-2-[4-(2-chloro-4-fluoro-phenyl)-2-oxo-chromen-7-yl]oxypropanoyl]piperidine-3-carboxylic acid (Table 3: 40 nM, 120 h); negative=synergistic, positive=antagonistic
Experimental: (§1) Solforhodamine B assay is carried out as described in Voigt W. (2005) Sulforhodamine B Assay and Chemosensitivity. (Methods in Molecular Medicine™, vol 110. Humana Press. https://doi.org/10.1385/1-59259-869-2:039).
(§2) The determination of changes in cellular biomass was based on the Solforhodamine B assay format, carried out as described in Voigt W. (2005) Sulforhodamine B Assay and Chemosensitivity. (Methods in Molecular Medicine™, vol 110. Humana Press. https://doi.org/10.1385/1-59259-869-2:039).
(§3) All in vitro cell culture experiments were carried out under near physiological glucose concentrations (5 mM) in at least two independent replicates.
(§4) First, 30 different cell lines from 14 different tissue types were tested in the SRB assay format. The cells were examined individually for changes in growth over a period of 120 hours with dilution series of both inhibitors. Untreated cells were used as a negative control group. Subsequently, a dilution series of the respective MAPK signalling pathway SOCs was treated in combination with a fixed concentration of 40 nM (3S)-1-[(2R)-2-[4-(2-chloro-4-fluoro-phenyl)-2-oxo-chromen-7-yl]oxypropanoyl]piperidine-3-carboxylic acid.

A673 = A673 (muscle); concentration series of the labelled inhibitor + fixed concentration of IMT (3S)-1-[(2R)-2-[4-(2-chloro-4-fluoro-phenyl)-2-oxo-chromen-7-yl]oxypropanoyl]piperidine-3-carboxylic acid (Table 3: 40 nM, 120 h); negative=synergistic, positive=antagonistic
Experimental: as §1, §2, §3, §4

BXPC3 = BXPC3 (pancreas); concentration series of the labelled inhibitor + fixed concentration of IMT (3S)-1-[(2R)-2-[4-(2-chloro-4-fluoro-phenyl)-2-oxo-chromen-7-yl]oxypropanoyl]piperidine-3-carboxylic acid (Table 3: 40 nM, 120 h); negative=synergistic, positive=antagonistic
Experimental: as §1, §2, §3, §4

HCT116 = HCT116 (colon); concentration series of the labelled inhibitor + fixed concentration of IMT (3S)-1-[(2R)-2-[4-(2-chloro-4-fluoro-phenyl)-2-oxo-chromen-7-yl]oxypropanoyl]piperidine-3-carboxylic acid (Table 3: 40 nM, 120 h); negative=synergistic, positive=antagonistic
Experimental: as §1, §2, §3, §4

HCT15 = HCT15 (colon); concentration series of the labelled inhibitor + fixed concentration of IMT (3S)-1-[(2R)-2-[4-(2-chloro-4-fluoro-phenyl)-2-oxo-chromen-7-yl]oxypropanoyl]piperidine-3-carboxylic acid (Table 3: 40 nM, 120 h); negative=synergistic, positive=antagonistic
Experimental: as §1, §2, §3, §4

HEPG2 = HEPG2 (liver); concentration series of the labelled inhibitor + fixed concentration of IMT (3S)-1-[(2R)-2-[4-(2-chloro-4-fluoro-phenyl)-2-oxo-chromen-7-yl]oxypropanoyl]piperidine-3-carboxylic acid (Table 3: 40 nM, 120 h); negative=synergistic, positive=antagonistic
Experimental: as §1, §2, §3, §4

HT29 = HT29 (colon); concentration series of the labelled inhibitor + fixed concentration of IMT (3S)-1-[(2R)-2-[4-(2-chloro-4-fluoro-phenyl)-2-oxo-chromen-7-yl]oxypropanoyl]piperidine-3-carboxylic acid (Table 3: 40 nM, 120 h); negative=synergistic, positive=antagonistic
Experimental: as §1, §2, §3, §4

IMR90 = IMR90 (lung); concentration series of the labelled inhibitor + fixed concentration of IMT (3S)-1-[(2R)-2-[4-(2-chloro-4-fluoro-phenyl)-2-oxo-chromen-7-yl]oxypropanoyl]piperidine-3-carboxylic acid (Table 3: 40 nM, 120 h); negative=synergistic, positive=antagonistic
Experimental: as §1, §2, §3, §4

JAR = JAR (placenta); concentration series of the labelled inhibitor + fixed concentration of IMT (3S)-1-[(2R)-2-[4-(2-chloro-4-fluoro-phenyl)-2-oxo-chromen-7-yl]oxypropanoyl]piperidine-3-carboxylic acid (Table 3: 40 nM, 120 h); negative=synergistic, positive=antagonistic
Experimental: as §1, §2, §3, §4

KASUMI-1 = KASUMI-1 (hematological); concentration series of the labelled inhibitor + fixed concentration of IMT (3S)-1-[(2R)-2-[4-(2-chloro-4-fluoro-phenyl)-2-oxo-chromen-7-yl]oxypropanoyl]piperidine-3-carboxylic acid (Table 3: 40 nM, 120 h); negative=synergistic, positive=antagonistic
Experimental: as §1, §2, §3, §4

LOVO = LOVO (colon); concentration series of the labelled inhibitor + fixed concentration of IMT (3S)-1-[(2R)-2-[4-(2-chloro-4-fluoro-phenyl)-2-oxo-chromen-7-yl]oxypropanoyl]piperidine-3-carboxylic acid (Table 3: 40 nM, 120 h); negative=synergistic, positive=antagonistic
Experimental: as §1, §2, §3, §4

MHHES1 = MHHES1 (bone); concentration series of the labelled inhibitor + fixed concentration of IMT (3S)-1-[(2R)-2-[4-(2-chloro-4-fluoro-phenyl)-2-oxo-chromen-7-yl]oxypropanoyl]piperidine-3-carboxylic acid (Table 3: 40 nM, 120 h); negative=synergistic, positive=antagonistic
Experimental: as §1, §2, §3, §4

MIAPACA2 = MIAPACA2 (pancreas); concentration series of the labelled inhibitor + fixed concentration of IMT (3S)-1-[(2R)-2-[4-(2-chloro-4-fluoro-phenyl)-2-oxo-chromen-7-yl]oxypropanoyl]piperidine-3-carboxylic acid (Table 3: 40 nM, 120 h); negative=synergistic, positive=antagonistic
Experimental: as §1, §2, §3, §4

PANC1 = PANC1 (pancreas); concentration series of the labelled inhibitor + fixed concentration of IMT (3S)-1-[(2R)-2-[4-(2-chloro-4-fluoro-phenyl)-2-oxo-chromen-7-yl]oxypropanoyl]piperidine-3-carboxylic acid (Table 3: 40 nM, 120 h); negative=synergistic, positive=antagonistic
Experimental: as §1, §2, §3, §4

SKMEL28 = SKMEL28 (skin); concentration series of the labelled inhibitor + fixed concentration of IMT (3S)-1-[(2R)-2-[4-(2-chloro-4-fluoro-phenyl)-2-oxo-chromen-7-yl]oxypropanoyl]piperidine-3-carboxylic acid (Table 3: 40 nM, 120 h); negative=synergistic, positive=antagonistic
Experimental: as §1, §2, §3, §4

In the case of `CC(C)(C)c1nc(-c2cccc(NS(=O)(=O)c3c(F)cccc3F)c2F)c(-c2ccnc(N)n2)s1` [Dabrafenib], the “difference between the calculated combinatorial index (BLISS) and the observed combinatorial effect” value (A375) is reported as 0.0337, the “difference between the calculated combinatorial index (BLISS) and the observed combinatorial effect” value (A673) is reported as −0.0146 and the “difference between the calculated combinatorial index (BLISS) and the observed combinatorial effect” value (BXPC3) is reported as 0.0251. For the same compound, the “difference between the calculated combinatorial index (BLISS) and the observed combinatorial effect” value (HCT116) was 0.0411, the “difference between the calculated combinatorial index (BLISS) and the observed combinatorial effect” value (HCT15) was 0.0551 and the “difference between the calculated combinatorial index (BLISS) and the observed combinatorial effect” value (HEPG2) was −0.1427. The “difference between the calculated combinatorial index (BLISS) and the observed combinatorial effect” value (HT29) was 0.0360, the “difference between the calculated combinatorial index (BLISS) and the observed combinatorial effect” value (IMR90) was −0.0104 and the “difference between the calculated combinatorial index (BLISS) and the observed combinatorial effect” value (JAR) was 0.0431. The “difference between the calculated combinatorial index (BLISS) and the observed combinatorial effect” value (KASUMI-1) was −0.0274, the “difference between the calculated combinatorial index (BLISS) and the observed combinatorial effect” value (LOVO) was −0.0384 and the “difference between the calculated combinatorial index (BLISS) and the observed combinatorial effect” value (MHHES1) was −0.0230. For the same compound, the “difference between the calculated combinatorial index (BLISS) and the observed combinatorial effect” value (MIAPACA2) was 0.0508, the “difference between the calculated combinatorial index (BLISS) and the observed combinatorial effect” value (PANC1) was 0.0029 and the “difference between the calculated combinatorial index (BLISS) and the observed combinatorial effect” value (SKMEL28) was 0.0194.

`CS(=O)(=O)N1CCN(Cc2cc3nc(-c4cccc5[nH]ncc45)nc(N4CCOCC4)c3s2)CC1` [GDC-0941, 2-(1H-Indazol-4-yl)-6-[[4-(methylsulfonyl)-1-piperazinyl]methyl]-4-(4-morpholinyl)thieno[3,2-d]pyrimidine] was tested, and the “difference between the calculated combinatorial index (BLISS) and the observed combinatorial effect” value (A375) was −0.0654, the “difference between the calculated combinatorial index (BLISS) and the observed combinatorial effect” value (A673) was 0.0099 and the “difference between the calculated combinatorial index (BLISS) and the observed combinatorial effect” value (BXPC3) was 0.0704. For the same compound, the “difference between the calculated combinatorial index (BLISS) and the observed combinatorial effect” value (HCT116) was −0.0464, the “difference between the calculated combinatorial index (BLISS) and the observed combinatorial effect” value (HCT15) was 0.0270 and the “difference between the calculated combinatorial index (BLISS) and the observed combinatorial effect” value (HEPG2) was −0.0006. The “difference between the calculated combinatorial index (BLISS) and the observed combinatorial effect” value (HT29) was 0.1027, the “difference between the calculated combinatorial index (BLISS) and the observed combinatorial effect” value (IMR90) was 0.0629 and the “difference between the calculated combinatorial index (BLISS) and the observed combinatorial effect” value (JAR) was 0.0136. For the same compound, the “difference between the calculated combinatorial index (BLISS) and the observed combinatorial effect” value (KASUMI-1) was 0.0051, the “difference between the calculated combinatorial index (BLISS) and the observed combinatorial effect” value (LOVO) was −0.0539 and the “difference between the calculated combinatorial index (BLISS) and the observed combinatorial effect” value (MIAPACA2) was 0.0516. The “difference between the calculated combinatorial index (BLISS) and the observed combinatorial effect” value (PANC1) was −0.0128 and the “difference between the calculated combinatorial index (BLISS) and the observed combinatorial effect” value (SKMEL28) was −0.0330.

For `COc1c(OCCCN2CCOCC2)ccc2c1N=C(NC(=O)c1cnc(N)nc1)N1CCN=C21` [BAY 80-6946, 2-Amino-N-{7-methoxy-8-[3-(4-morpholinyl)propoxy]-2,3-dihydroimidazo[1,2-c]quinazolin-5-yl}-5-pyrimidinecarboxamide], the “difference between the calculated combinatorial index (BLISS) and the observed combinatorial effect” value (A375) was −0.0033, the “difference between the calculated combinatorial index (BLISS) and the observed combinatorial effect” value (A673) was 0.0259 and the “difference between the calculated combinatorial index (BLISS) and the observed combinatorial effect” value (BXPC3) was −0.0082. For the same compound, the “difference between the calculated combinatorial index (BLISS) and the observed combinatorial effect” value (HCT116) was −0.0195, the “difference between the calculated combinatorial index (BLISS) and the observed combinatorial effect” value (HCT15) was 0.1444 and the “difference between the calculated combinatorial index (BLISS) and the observed combinatorial effect” value (HEPG2) was −0.0273. The “difference between the calculated combinatorial index (BLISS) and the observed combinatorial effect” value (HT29) was 0.0613, the “difference between the calculated combinatorial index (BLISS) and the observed combinatorial effect” value (IMR90) was 0.0281 and the “difference between the calculated combinatorial index (BLISS) and the observed combinatorial effect” value (JAR) was 0.0381. The “difference between the calculated combinatorial index (BLISS) and the observed combinatorial effect” value (KASUMI-1) was 0.0015, the “difference between the calculated combinatorial index (BLISS) and the observed combinatorial effect” value (LOVO) was −0.0178 and the “difference between the calculated combinatorial index (BLISS) and the observed combinatorial effect” value (MIAPACA2) was 0.0574. The “difference between the calculated combinatorial index (BLISS) and the observed combinatorial effect” value (PANC1) was 0.0174 and the “difference between the calculated combinatorial index (BLISS) and the observed combinatorial effect” value (SKMEL28) was −0.0068.

`C[C@H](Nc1ncnc2nc[nH]c12)c1cc2cccc(Cl)c2c(=O)n1-c1ccccc1` [Duvelisib] was tested, and the “difference between the calculated combinatorial index (BLISS) and the observed combinatorial effect” value (A375) was −0.0153, the “difference between the calculated combinatorial index (BLISS) and the observed combinatorial effect” value (A673) was 0.0570 and the “difference between the calculated combinatorial index (BLISS) and the observed combinatorial effect” value (BXPC3) was −0.0109. The “difference between the calculated combinatorial index (BLISS) and the observed combinatorial effect” value (HCT116) was −0.0213, the “difference between the calculated combinatorial index (BLISS) and the observed combinatorial effect” value (HCT15) was 0.0170 and the “difference between the calculated combinatorial index (BLISS) and the observed combinatorial effect” value (HEPG2) was −0.0318. The “difference between the calculated combinatorial index (BLISS) and the observed combinatorial effect” value (HT29) was 0.0216, the “difference between the calculated combinatorial index (BLISS) and the observed combinatorial effect” value (IMR90) was 0.0253 and the “difference between the calculated combinatorial index (BLISS) and the observed combinatorial effect” value (JAR) was 0.0624. For the same compound, the “difference between the calculated combinatorial index (BLISS) and the observed combinatorial effect” value (KASUMI-1) was −0.0237, the “difference between the calculated combinatorial index (BLISS) and the observed combinatorial effect” value (LOVO) was −0.0219 and the “difference between the calculated combinatorial index (BLISS) and the observed combinatorial effect” value (MIAPACA2) was −0.0183. The “difference between the calculated combinatorial index (BLISS) and the observed combinatorial effect” value (PANC1) was −0.0096 and the “difference between the calculated combinatorial index (BLISS) and the observed combinatorial effect” value (SKMEL28) was −0.0412.

From US20240252454A1, “COMPOSITION COMPRISING AN INHIBITOR OF MITOCHONDRIAL TRANSCRIPTION” (LEAD DISCOVERY CENTER GMBH, priority 2021, published 2024)
